According to patent publication USRE47689E1, “Compounds for treating spinal muscular atrophy” (PTC Therapeutics, Inc., priority 2011, dated 2019):
Where two headings read alike, the source gives them in different places.

Legend:
Smn protein = Smn protein assay in cultured cells (SMN HTRF); type: cell-based, human; conditions: for EC1.5x (concentration giving 1.5-fold Smn protein increase): read-out: EC1.5x for Smn protein expression
Outline: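 Smn in SMA fibroblast lysates, measured by anti-SMN HTRF after 48 h compound exposure; EC1.5x from fold change over vehicle.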

[1] = system: SMN2 minigene (full length SMN2 minigene mRNA containing SMN2 exon 7); test: SMN2 minigene mRNA splicing RT-qPCR assay in cultured cells; type: cell-based, human; conditions: Homo sapiens, HEK293-H, read-out: EC1.5x for production of full length SMN2 mRNA
Outline: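 Lysates → one-step RT-qPCR, minigene-specific primers (0.4 μM final) + GAPDH multiplex, 40 cycles. FL/GAPDH vs DMSO; EC1.5x, star-binned.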

[2] = SMA Type 1 patient fibroblast cells (GM03813), 48 hours, 7-point concentration curve, SMN HTRF, concentration producing 1.5 times Smn protein vs DMSO vehicle control
[3] = SMA patient fibroblast cells, 48 hours, 7-point concentration data, fold increase relative to vehicle control (SMN HTRF)
[4] = HEK293H cells stably transfected with SMN2-A minigene, 24 hours, 7-point concentration curve, 1.5-fold relative to vehicle-treated cells

| melting point [°C] | Compound | EC1.5x (concentration giving 1.5-fold Smn protein increase) (Smn protein; [2]) [nM] | maximum fold (Fold) increase of Smn protein (Smn protein; [3]) | EC (1.5-fold) [1, 4] [µM] | EC (1.5-fold) ([1]; 24 h) [µM] | maximum fold (Fold) increase of Smn protein (Smn protein) | EC1.5x (concentration giving 1.5-fold Smn protein increase) (Smn protein) [nM] |
| --- | --- | --- | --- | --- | --- | --- | --- |
| 206 to 209 | Cc1cn2cc(-c3cc4ccc(N5CCN(C)[C@H](C)C5)cc4oc3=O)ccc2n1 [Compound 661, 7-[(3R)-3,4-dimethylpiperazin-1-yl]-3-(2-methylimidazo[1,2-a]pyridin-6-yl)-2H-chromen-2-one] | < 300 | ***** (fold increase >1.65) | < 0.1 |  |  |  |
| 220 to 222 | CCCN1CCN(c2ccc3cc(-c4cn5cc(C)ccc5n4)c(=O)oc3c2)CC1 [Compound 207, 3-(6-methylimidazo[1,2-a]pyridin-2-yl)-7-(4-propylpiperazin-1-yl)-2H-chromen-2-one] |  | ** (fold increase between >1.2 and ≤1.35) | 1 to 3 |  |  |  |
| 190 to 193 | C[C@H]1CN(c2ccc3cc(-c4cn5cccc(F)c5n4)c(=O)oc3c2)CCN1 [Compound 525, 3-(8-fluoroimidazo[1,2-a]pyridin-2-yl)-7-[(3S)-3-methylpiperazin-1-yl]-2H-chromen-2-one] |  | *** (fold increase between >1.35 and ≤1.5) | 0.1 to 0.3 |  |  |  |
| 215 to 218 | CN1CCC(c2ccc3cc(-c4ccc5nn(C)cc5c4)c(=O)oc3c2)CC1 [Compound 862, 3-(2-methyl-2H-indazol-5-yl)-7-(1-methylpiperidin-4-yl)-2H-chromen-2-one] | 300 to 1000 | ***** (fold increase >1.65) | < 0.1 |  |  |  |
| 203 to 205 | Cc1cc2cc(-c3cc4ccc(N5CCN6CCC[C@H]6C5)cc4oc3=O)oc2c(C)n1 [Compound 745, 3-(5,7-dimethylfuro[2,3-c]pyridin-2-yl)-7-[(8aS)-hexahydropyrrolo[1,2-a]pyrazin-2(1H)-yl]-2H-chromen-2-one] | < 300 | ***** (fold increase >1.65) | < 0.1 |  |  |  |
| 224 to 230 | Cc1ccn2cc(-c3cc4ccc(NC5CCN(C)CC5)cc4oc3=O)nc2c1 [Compound 474, 3-(7-methylimidazo[1,2-a]pyridin-2-yl)-7-[(1-methylpiperidin-4-yl)amino]-2H-chromen-2-one] |  | * (maximum fold increase of ≤1.2) | 1 to 3 |  |  |  |

The remaining lines, values behind:

| Compound | melting point [°C] | EC1.5x (concentration giving 1.5-fold Smn protein increase) (Smn protein; [2]) [nM] | maximum fold (Fold) increase of Smn protein (Smn protein; [3]) | EC (1.5-fold) [1, 4] [µM] | EC (1.5-fold) ([1]; 24 h) [µM] | maximum fold (Fold) increase of Smn protein (Smn protein) | EC1.5x (concentration giving 1.5-fold Smn protein increase) (Smn protein) [nM] |
| --- | --- | --- | --- | --- | --- | --- | --- |
| Cc1cc2cc(-c3cc4ccc(N5CCN(C(C)C)CC5)cc4oc3=O)oc2c(C)n1 [Compound 789, 3-(5,7-dimethylfuro[2,3-c]pyridin-2-yl)-7-[4-(propan-2-yl)piperazin-1-yl]-2H-chromen-2-one] | 186 to 189 |  | *** (fold increase between >1.35 and ≤1.5) | < 0.1 |  |  |  |
| Cc1cc(F)cn2cc(-c3cc4ccc(N5CCNCC5)cc4oc3=O)nc12 [Compound 328, 3-(6-fluoro-8-methylimidazo[1,2-a]pyridin-2-yl)-7-(piperazin-1-yl)-2H-chromen-2-one] | 223 to 230 |  | * (maximum fold increase of ≤1.2) | 0.3 to 1 |  |  |  |
| COc1ccc(-c2cc3c(F)cc(N4CCN[C@H](C)C4)cc3oc2=O)cc1OC [Compound 416, 3-(3,4-dimethoxyphenyl)-5-fluoro-7-[(3R)-3-methylpiperazin-1-yl]-2H-chromen-2-one] | 115 to 117 |  | ** (fold increase between >1.2 and ≤1.35) | 1 to 3 |  |  |  |
| C[C@@H]1CN(c2ccc3cc(-c4cn5cc(F)cnc5n4)c(=O)oc3c2)CCN1 [Compound 481, 3-(6-fluoroimidazo[1,2-a]pyrimidin-2-yl)-7-[(3R)-3-methylpiperazin-1-yl]-2H-chromen-2-one] | 232 to 236 |  | * (maximum fold increase of ≤1.2) | 1 to 3 |  |  |  |
| Cc1ccc2nc(-c3cc4ccc(N(C)C5CCN(C)CC5)cc4oc3=O)cn2c1 [Compound 282, 3-(6-methylimidazo[1,2-a]pyridin-2-yl)-7-[methyl(1-methylpiperidin-4-yl)amino]-2H-chromen-2-one] | 181 to 184 |  | * (maximum fold increase of ≤1.2) |  | 1 to 3 |  |  |
| O=c1oc2cc(N3CCNCC3)ccc2cc1-c1cccc(F)c1 [Compound 26, 3-(3-fluorophenyl)-7-(piperazin-1-yl)-2H-chromen-2-one] | 148 to 150 |  | * (maximum fold increase of ≤1.2) |  | 1 to 3 |  |  |
| CCN1CCN(c2ccc3cc(-c4cn5c(C)csc5n4)c(=O)oc3c2)CC1 [Compound 178, 7-(4-ethylpiperazin-1-yl)-3-(3-methylimidazo[2,1-b][1,3]thiazol-6-yl)-2H-chromen-2-one] | 178 to 180 |  | * (maximum fold increase of ≤1.2) | 3 to 30 |  |  |  |
| Cc1ccn2cc(-c3cc4ccc(N5C[C@@H](C)N[C@@H](C)C5)cc4oc3=O)nc2c1 [Compound 133, 7-[(3R,5S)-3,5-dimethylpiperazin-1-yl]-3-(7-methylimidazo[1,2-a]pyridin-2-yl)-2H-chromen-2-one] | 210 to 217 | 3000 to 10000 | *** (fold increase between >1.35 and ≤1.5) | 0.1 to 0.3 |  |  |  |
| Cc1cn2cc(-c3cc4ccc(N5CCN[C@@H](C)C5)cc4oc3=O)nc2s1 [Compound 232, 3-(2-methylimidazo[2,1-b][1,3]thiazol-6-yl)-7-[(3S)-3-methylpiperazin-1-yl]-2H-chromen-2-one] | 177 to 182 |  | * (maximum fold increase of ≤1.2) | 0.3 to 1 |  |  |  |
| O=c1oc2cc(N3CCN4CCC3CC4)ccc2cc1-c1cn2ccsc2n1 [Compound 438, 7-(1,4-diazabicyclo[3.2.2]non-4-yl)-3-(imidazo[2,1-b][1,3]thiazol-6-yl)-2H-chromen-2-one] | > 300 |  |  |  | 0.1 to 0.3 | *** (key: *: maximum fold increase of ≤1.2; **: fold increase between >1.2 and ≤1.35; ***: fold increase between >1.35 and ≤1.5; ****: fold increase between >1.5 and ≤1.65; *****: fold increase >1.65) | 1000 to 3000 |
| Cc1cn2cc(-c3cc4ccc(CCCN(C)C)cc4oc3=O)nc2c(C)n1 [Compound 857, 7-[3-(dimethylamino)propyl]-3-(6,8-dimethylimidazo[1,2-a]pyrazin-2-yl)-2H-chromen-2-one] | 194 to 196 | < 300 | ***** (fold increase >1.65) | < 0.1 |  |  |  |
| C[C@@H]1CN(c2ccc3cc(-c4cc5ccccn5n4)c(=O)oc3c2)C[C@H](C)N1 [Compound 189, 7-[(3R,5S)-3,5-dimethylpiperazin-1-yl]-3-(pyrazolo[1,5-a]pyridin-2-yl)-2H-chromen-2-one] | 188 to 190 |  | ** (fold increase between >1.2 and ≤1.35) | 1 to 3 |  |  |  |
